From patent publication US9326506B2, “Preparation method, agricultural composition and applications of natural brassinolide analogs” (CHENGDU NEWSUN CROPSCIENCE CO., LTD, priority 2012, dated 2016)

Test system: rice
Assay: Low temperature assay on rice seedlings
Assay type: in vivo
How it was run: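 Nine-day-old etiolated rice seedlings (grown on water at 30 °C±2 °C, dark) immersed in brassinolide analogues at 1–0.0001 mg/L or pure water, held at 1–5 °C for 24 hr. Plant height, leaf area, root weight read at 3, 6, 9, 12 days; leaf and tiller number at 12 days.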

CC(C)C[C@@H](O)[C@H](O)[C@@H](C)[C@H]1CCC2C3CC(=O)C4C[C@H](O)[C@H](O)C[C@]4(C)C3CC[C@@]21C (stereo partly shown) [BR5]
Area of leaf (0.0001 mg/l, 1 °C, 3 days): 9.8 cm^2
Height (0.0001 mg/l, 1 °C, 3 days): 6.8 cm
Weight of root (0.0001 mg/l, 1 °C, 3 days): 2.8 g
Area of leaf (0.0001 mg/l, 1 °C, 6 days): 11.2 cm^2
Height (0.0001 mg/l, 1 °C, 6 days): 6.9 cm
Weight of root (0.0001 mg/l, 1 °C, 6 days): 3.1 g
Area of leaf (0.0001 mg/l, 1 °C, 9 days): 12 cm^2
Height (0.0001 mg/l, 1 °C, 9 days): 7 cm
Weight of root (0.0001 mg/l, 1 °C, 9 days): 3.4 g
Area of leaf (0.0001 mg/l, 1 °C, 12 days): 13.1 cm^2
Height (0.0001 mg/l, 1 °C, 12 days): 7.2 cm
Number of leaf (0.0001 mg/l, 1 °C, 12 days): 3
Number of tiller (0.0001 mg/l, 1 °C, 12 days): 3
Weight of root (0.0001 mg/l, 1 °C, 12 days): 3.6 g
Area of leaf (0.0001 mg/l, 2 °C, 3 days): 10 cm^2
Height (0.0001 mg/l, 2 °C, 3 days): 6.8 cm
Weight of root (0.0001 mg/l, 2 °C, 3 days): 2.8 g
Area of leaf (0.0001 mg/l, 2 °C, 6 days): 11.7 cm^2
Height (0.0001 mg/l, 2 °C, 6 days): 7 cm
Weight of root (0.0001 mg/l, 2 °C, 6 days): 3.0 g
Area of leaf (0.0001 mg/l, 2 °C, 9 days): 12.4 cm^2
Height (0.0001 mg/l, 2 °C, 9 days): 7.1 cm
Weight of root (0.0001 mg/l, 2 °C, 9 days): 3.2 g
Area of leaf (0.0001 mg/l, 2 °C, 12 days): 13 cm^2
Height (0.0001 mg/l, 2 °C, 12 days): 7.4 cm
Number of leaf (0.0001 mg/l, 2 °C, 12 days): 3
Number of tiller (0.0001 mg/l, 2 °C, 12 days): 3
Weight of root (0.0001 mg/l, 2 °C, 12 days): 3.4 g
Area of leaf (0.0001 mg/l, 3 °C, 3 days): 10 cm^2
Height (0.0001 mg/l, 3 °C, 3 days): 6.9 cm
Weight of root (0.0001 mg/l, 3 °C, 3 days): 2.5 g
Area of leaf (0.0001 mg/l, 3 °C, 6 days): 11.8 cm^2
Height (0.0001 mg/l, 3 °C, 6 days): 7.2 cm
Weight of root (0.0001 mg/l, 3 °C, 6 days): 2.6 g
Area of leaf (0.0001 mg/l, 3 °C, 9 days): 12.3 cm^2
Height (0.0001 mg/l, 3 °C, 9 days): 7.4 cm
Weight of root (0.0001 mg/l, 3 °C, 9 days): 2.9 g
Area of leaf (0.0001 mg/l, 3 °C, 12 days): 13.2 cm^2
Height (0.0001 mg/l, 3 °C, 12 days): 7.5 cm
Number of leaf (0.0001 mg/l, 3 °C, 12 days): 3
Number of tiller (0.0001 mg/l, 3 °C, 12 days): 2
Weight of root (0.0001 mg/l, 3 °C, 12 days): 2.9 g
Area of leaf (0.0001 mg/l, 4 °C, 3 days): 10 cm^2
Height (0.0001 mg/l, 4 °C, 3 days): 6.9 cm
Weight of root (0.0001 mg/l, 4 °C, 3 days): 2.5 g
Area of leaf (0.0001 mg/l, 4 °C, 6 days): 11.7 cm^2
Height (0.0001 mg/l, 4 °C, 6 days): 7.3 cm
Weight of root (0.0001 mg/l, 4 °C, 6 days): 2.6 g
Area of leaf (0.0001 mg/l, 4 °C, 9 days): 13 cm^2
Height (0.0001 mg/l, 4 °C, 9 days): 7.5 cm
Weight of root (0.0001 mg/l, 4 °C, 9 days): 2.7 g
Area of leaf (0.0001 mg/l, 4 °C, 12 days): 13.4 cm^2
Height (0.0001 mg/l, 4 °C, 12 days): 7.6 cm
Number of leaf (0.0001 mg/l, 4 °C, 12 days): 3
Number of tiller (0.0001 mg/l, 4 °C, 12 days): 2
Weight of root (0.0001 mg/l, 4 °C, 12 days): 2.9 g
Area of leaf (0.0001 mg/l, 5 °C, 3 days): 10.2 cm^2
Height (0.0001 mg/l, 5 °C, 3 days): 7.0 cm
Weight of root (0.0001 mg/l, 5 °C, 3 days): 2.5 g
Area of leaf (0.0001 mg/l, 5 °C, 6 days): 12 cm^2
Height (0.0001 mg/l, 5 °C, 6 days): 7.2 cm
Weight of root (0.0001 mg/l, 5 °C, 6 days): 2.7 g
Area of leaf (0.0001 mg/l, 5 °C, 9 days): 13.2 cm^2
Height (0.0001 mg/l, 5 °C, 9 days): 7.5 cm
Weight of root (0.0001 mg/l, 5 °C, 9 days): 2.9 g
Area of leaf (0.0001 mg/l, 5 °C, 12 days): 14 cm^2
Height (0.0001 mg/l, 5 °C, 12 days): 7.7 cm
Number of leaf (0.0001 mg/l, 5 °C, 12 days): 3
Number of tiller (0.0001 mg/l, 5 °C, 12 days): 2
Weight of root (0.0001 mg/l, 5 °C, 12 days): 3.0 g
Area of leaf (0.001 mg/l, 1 °C, 3 days): 10.1 cm^2
Height (0.001 mg/l, 1 °C, 3 days): 6.9 cm
Weight of root (0.001 mg/l, 1 °C, 3 days): 2.8 g
Area of leaf (0.001 mg/l, 1 °C, 6 days): 11.3 cm^2
Height (0.001 mg/l, 1 °C, 6 days): 7.1 cm
Weight of root (0.001 mg/l, 1 °C, 6 days): 3.1 g
Area of leaf (0.001 mg/l, 1 °C, 9 days): 12.8 cm^2
Height (0.001 mg/l, 1 °C, 9 days): 7.2 cm
Weight of root (0.001 mg/l, 1 °C, 9 days): 3.3 g
Area of leaf (0.001 mg/l, 1 °C, 12 days): 13 cm^2
Height (0.001 mg/l, 1 °C, 12 days): 7.3 cm
Number of leaf (0.001 mg/l, 1 °C, 12 days): 3
Number of tiller (0.001 mg/l, 1 °C, 12 days): 3
Weight of root (0.001 mg/l, 1 °C, 12 days): 3.9 g
Area of leaf (0.001 mg/l, 2 °C, 3 days): 9.8 cm^2
Height (0.001 mg/l, 2 °C, 3 days): 6.9 cm
Weight of root (0.001 mg/l, 2 °C, 3 days): 2.8 g
Area of leaf (0.001 mg/l, 2 °C, 6 days): 11.6 cm^2
Height (0.001 mg/l, 2 °C, 6 days): 7.1 cm
Weight of root (0.001 mg/l, 2 °C, 6 days): 3.0 g
Area of leaf (0.001 mg/l, 2 °C, 9 days): 12.2 cm^2
Height (0.001 mg/l, 2 °C, 9 days): 7.3 cm
Weight of root (0.001 mg/l, 2 °C, 9 days): 3.2 g
Area of leaf (0.001 mg/l, 2 °C, 12 days): 13.1 cm^2
Height (0.001 mg/l, 2 °C, 12 days): 7.3 cm
Number of leaf (0.001 mg/l, 2 °C, 12 days): 3
Number of tiller (0.001 mg/l, 2 °C, 12 days): 3
Weight of root (0.001 mg/l, 2 °C, 12 days): 3.9 g
Area of leaf (0.001 mg/l, 3 °C, 3 days): 10 cm^2
Height (0.001 mg/l, 3 °C, 3 days): 7 cm
Weight of root (0.001 mg/l, 3 °C, 3 days): 2.5 g
Area of leaf (0.001 mg/l, 3 °C, 6 days): 12 cm^2
Height (0.001 mg/l, 3 °C, 6 days): 7 cm
Weight of root (0.001 mg/l, 3 °C, 6 days): 2.6 g
Area of leaf (0.001 mg/l, 3 °C, 9 days): 12.4 cm^2
Height (0.001 mg/l, 3 °C, 9 days): 7.3 cm
Weight of root (0.001 mg/l, 3 °C, 9 days): 2.9 g
Area of leaf (0.001 mg/l, 3 °C, 12 days): 13 cm^2
Height (0.001 mg/l, 3 °C, 12 days): 7.4 cm
Number of leaf (0.001 mg/l, 3 °C, 12 days): 3
Number of tiller (0.001 mg/l, 3 °C, 12 days): 2
Weight of root (0.001 mg/l, 3 °C, 12 days): 2.9 g
Area of leaf (0.001 mg/l, 4 °C, 3 days): 10 cm^2
Height (0.001 mg/l, 4 °C, 3 days): 7.1 cm
Weight of root (0.001 mg/l, 4 °C, 3 days): 2.5 g
Area of leaf (0.001 mg/l, 4 °C, 6 days): 12.1 cm^2
Height (0.001 mg/l, 4 °C, 6 days): 7.3 cm
Weight of root (0.001 mg/l, 4 °C, 6 days): 2.6 g
Area of leaf (0.001 mg/l, 4 °C, 9 days): 13 cm^2
Height (0.001 mg/l, 4 °C, 9 days): 7.5 cm
Weight of root (0.001 mg/l, 4 °C, 9 days): 2.9 g
Area of leaf (0.001 mg/l, 4 °C, 12 days): 13.5 cm^2
Height (0.001 mg/l, 4 °C, 12 days): 7.5 cm
Number of leaf (0.001 mg/l, 4 °C, 12 days): 3
Number of tiller (0.001 mg/l, 4 °C, 12 days): 2
Weight of root (0.001 mg/l, 4 °C, 12 days): 2.9 g
Area of leaf (0.001 mg/l, 5 °C, 3 days): 10.2 cm^2
Height (0.001 mg/l, 5 °C, 3 days): 7.2 cm
Weight of root (0.001 mg/l, 5 °C, 3 days): 2.8 g
Area of leaf (0.001 mg/l, 5 °C, 6 days): 14 cm^2
Height (0.001 mg/l, 5 °C, 6 days): 7.5 cm
Weight of root (0.001 mg/l, 5 °C, 6 days): 2.9 g
Area of leaf (0.001 mg/l, 5 °C, 9 days): 15.4 cm^2
Height (0.001 mg/l, 5 °C, 9 days): 7.6 cm
Weight of root (0.001 mg/l, 5 °C, 9 days): 3.0 g
Area of leaf (0.001 mg/l, 5 °C, 12 days): 16 cm^2
Height (0.001 mg/l, 5 °C, 12 days): 8 cm
Number of leaf (0.001 mg/l, 5 °C, 12 days): 3
Number of tiller (0.001 mg/l, 5 °C, 12 days): 3
Weight of root (0.001 mg/l, 5 °C, 12 days): 3.4 g
Area of leaf (0.01 mg/l, 1 °C, 3 days): 10.1 cm^2
Height (0.01 mg/l, 1 °C, 3 days): 7.0 cm
Weight of root (0.01 mg/l, 1 °C, 3 days): 2.8 g
Area of leaf (0.01 mg/l, 1 °C, 6 days): 11.6 cm^2
Height (0.01 mg/l, 1 °C, 6 days): 7.2 cm
Weight of root (0.01 mg/l, 1 °C, 6 days): 3.0 g
Area of leaf (0.01 mg/l, 1 °C, 9 days): 12 cm^2
Height (0.01 mg/l, 1 °C, 9 days): 7.3 cm
Weight of root (0.01 mg/l, 1 °C, 9 days): 3.1 g
Area of leaf (0.01 mg/l, 1 °C, 12 days): 13.6 cm^2
Height (0.01 mg/l, 1 °C, 12 days): 7.5 cm
Number of leaf (0.01 mg/l, 1 °C, 12 days): 3
Number of tiller (0.01 mg/l, 1 °C, 12 days): 3
Weight of root (0.01 mg/l, 1 °C, 12 days): 3.9 g
Area of leaf (0.01 mg/l, 2 °C, 3 days): 10.1 cm^2
Height (0.01 mg/l, 2 °C, 3 days): 7.1 cm
Weight of root (0.01 mg/l, 2 °C, 3 days): 2.8 g
Area of leaf (0.01 mg/l, 2 °C, 6 days): 11.1 cm^2
Height (0.01 mg/l, 2 °C, 6 days): 7.2 cm
Weight of root (0.01 mg/l, 2 °C, 6 days): 3 g
Area of leaf (0.01 mg/l, 2 °C, 9 days): 12.1 cm^2
Height (0.01 mg/l, 2 °C, 9 days): 7.5 cm
Weight of root (0.01 mg/l, 2 °C, 9 days): 3 g
Area of leaf (0.01 mg/l, 2 °C, 12 days): 13.4 cm^2
Height (0.01 mg/l, 2 °C, 12 days): 7.5 cm
Number of leaf (0.01 mg/l, 2 °C, 12 days): 3
Number of tiller (0.01 mg/l, 2 °C, 12 days): 3
Weight of root (0.01 mg/l, 2 °C, 12 days): 3.2 g
Area of leaf (0.01 mg/l, 3 °C, 3 days): 10.2 cm^2
Height (0.01 mg/l, 3 °C, 3 days): 7.1 cm
Weight of root (0.01 mg/l, 3 °C, 3 days): 2.5 g
Area of leaf (0.01 mg/l, 3 °C, 6 days): 12 cm^2
Height (0.01 mg/l, 3 °C, 6 days): 7.2 cm
Weight of root (0.01 mg/l, 3 °C, 6 days): 2.6 g
Area of leaf (0.01 mg/l, 3 °C, 9 days): 12.2 cm^2
